Like-named read-outs stand apart in the source and are kept apart here.
Experiment: Drug concentration in tumour tissue and plasma of tumour-bearing mice
Type: in vivo, BALB/C nude mice
Details: for concentration at 1 h / concentration at 4 h: female, BALB/C nude, mouse, tumour-bearing mice (n = 3); for concentration at 1 h: 1.0 h after 30 mg/kg single oral dosing; for concentration at 4 h: 4.0 h after 30 mg/kg single oral dosing
Method: AsPC-1 (5 × 10^7) cells were injected subcutaneously into 5-week-old female BALB/C nude mice (Beijing Huafukang Bioscience CO. Inc, Beijing, China). After two weeks, mice were omogenizamised and treated with vehicle, gemcitabine (GCTB), or test compound. Blank solvent and test compound was administered by oral gavage (10 ml/kg) with once daily of five days and followed by 2 days off in each week, GCTB was given once a week by 50 mg/kg intraperitoneal injection. Mice were inspected daily for clinical signs, both tumour diameters and body weight were determined 3 times weekly. Tumour volumes were calculated according to the formula “tumor volume (V) = length × width^2/2”. Median TGI values were calculated as follows: TGI = 100 × [1-(Vtreated group at day20-Vtreated group at day1)/(Vvehicle group at day20-Vvehicle group at day1)]. Data were plotted as average with SD in the graphical representation of tumour growth. The p values obtained from the two-way ANOVA analysis. Meanwhile, main organs of mice were collected, formalin-fixed and paraffin-embedded for pathological analysis by H&E dyeing. For drug concentration determination, blood and tumour tissues were collected at indicated time after single administration. Standard curve of test compound was established in the acquisition mode of SIM using a SHIMADZU LC-MS instrument. Blood kept in anticoagulant tube coated with heparin sodium was centrifuged to provide the supernatant, which was followed by added with 3-fold acetonitrile to precipitate plasma protein. After centrifugation at 10 × 10^3 for 5 min, the supernatant was injected directedly into LC-MS instrument for quantification of drug concentration. As for tumour tissues, omogenizationation (Precellys Evolution) was done after weighed accurately and added with 3-fold saline. After centrifugation under same condition as plasma samples, supernatant was separated and injected into LC-MS for quantification.

[1] = plasma, read-out: Drug concentration (µM) Plasma
[2] = read-out: Drug concentration (µM) Tumour

For `CN(C)C(=O)c1cc2cnc(Nc3ccc(S(N)(=O)=O)cc3)nc2n1C1CCCC1` [compound 2g, 7-Cyclopentyl-N,N-dimethyl-2-((4-sulfamoylphenyl)amino)-7H-pyrrolo[2,3-d]pyrimidine-6-carboxamide], the “drug concentration in plasma and tumour tissue relative to cellular IC50 value” (30 mg/kg single oral dosing, both plasma and tumour tissue) was “higher than 2 fold”, the concentration at 1 h [1] was 7.46 ± 1.95 µM and the concentration at 4 h [1] was 0.53 ± 0.41 µM. It also gave a concentration at 1 h [2] of 3.13 ± 0.64 µM and a concentration at 4 h [2] of 0.48 ± 0.34 µM.

Source: PMC9858427, “Design, synthesis and biological evaluation of 2-((4-sulfamoylphenyl)amino)-pyrrolo[2,3-d]pyrimidine derivatives as CDK inhibitors” (Journal of Enzyme Inhibition and Medicinal Chemistry, 2023)
